What was measured:
[1] = system: dopamine-β-hydroxylase (DBH); test: DBH inhibitory activity in vitro (time-dependent inactivation; oxygen uptake with tyramine substrate); assay type: biochemical; settings: 1 mM, pH 4.5 to 5.5, preferably pH 5.0, 20-40° C., preferably 37° C., spread +/-1.1
Description: The DBH inhibitory properties of the compounds of this invention can readily be determined by standard and well known procedures such as those procedures set forth in U.S. Pat. No. 4,415,591. […] The test compound is added at the desired concentration, and the system is incubated. At different time intervals aliquots are taken and DBH activity is measured using tyramine as the substrate. The reaction is followed by measuring oxygen uptake using a polarographic electrode and an oxygen monitor by the method of S. May, et al., J. Biol. Chem. 256, 2258 (1981).

hypertensive rats = test: Antihypertensive activity in vivo, conscious hypertensive rats, mean blood pressure; settings: 50 mg/kg (ip)
Description: The ability of compounds of this invention to lower blood pressure can be determined in vivo using hypertensive rats according to standard and well known procedures. The test compound is administered intraperitoneally (ip) to conscious rats and the blood pressure monitored continuously. Decreased mean blood pressure over time was observed when a compound of this invention was tested by the above described procedure, as indicated in Table II.

t 1/2 (time required for 50% inhibition) [1]: 1.3 h
Compound: C=C=C(CN)c1cccs1 [β-ethenylidene-2-thiopheneethanamine, β-Ethenylidene-2-thiopheneethanamine]
Maximum % Change in mean Blood Pressure (hypertensive rats; decrease per text): 15.6%
Duration (hypertensive rats; duration of blood pressure change): 10 h

From patent US5112852A, “Allenyl amines” (Merrell Dow Pharmaceuticals Inc., priority 1989, dated 1992)
